{"source": "patent US9557338B2", "about": "(SIGNAL PHARMACEUTICALS, LLC, priority 2012, dated 2017)", "format_in_all_cases": "cell-based", "key": {"mTORC2": {"target": "T1, mTORC2 (Homo sapiens, UniProt P42345)", "T1 construct": "endogenous in cells; host or cells: PC3, A549, HCT116, U-87 MG, MDA-MB-231, NCI-H23, HT-29", "experiment": "Inhibition of mTORC2 measured by phosphorylation of pathway markers (FIG. 1)", "conditions": "phosphorylation of pathway markers Akt, PRAS40, GSK-3β, p70S6, S6, 4-EBP1", "description": "The activity of the TORC1 complex can be followed from the phosphorylation status of 4E-BP1(T46), a direct substrate of mTOR kinase and S6RP(S235/S236), a downstream substrate from mTOR. The activity of the TORC2 complex can be followed directly from the phosphorylation status of Akt(S473) and indirectly from the phosphorylation status of AKT substrates, GSK3β(S9) and PRAS40(T246). […] Full activation of Akt requires an additional phosphorylation on T308 that is done by PDK1 and is speculated to be co-dependent with the TORC2 phosphorylation of the Akt(S473)."}, "p70S6K": {"test_system": "p70S6K", "experiment": "Luminex multiplex assay, p70S6K phosphorylation in cell lysates"}, "HCT116": {"test_system": "HCT116", "experiment": "Growth inhibition (cell proliferation assay), HCT116", "conditions": "read-out: Compound 1 Growth Inhibition IC50"}, "S6RP(S235/S236)": {"test_system": "S6RP(S235/S236)", "experiment": "Inhibition of S6RP(S235/S236) phosphorylation in cell lines", "conditions": "read-out: p-S6RP(S235/S236)"}, "Phospho-PRAS40(T246)": {"test_system": "Phospho-PRAS40(T246)", "experiment": "Luminex multiplex assay, Phospho-PRAS40(T246)", "outline": "(§1)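 Cells (PC3; HCT-116, MDA-MB-231 and HT29 with 500 ng/mL recombinant human IGF-I for the final 10 min) treated with compound or rapamycin over a concentration range for 1 h at 37° C, 5% CO2. Lysates read by bead-based Luminex sandwich immunoassay, 3 h at room temperature, RPE anti-rabbit detection, quantified against phosphoprotein standard curves.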"}, "MDA-MB-231": {"test_system": "MDA-MB-231", "experiment": "Growth inhibition (cell proliferation assay), MDA-MB-231", "conditions": "read-out: Compound 1 Growth Inhibition IC50"}, "Phospho-GSK3β(S9)": {"test_system": "Phospho-GSK3β(S9)", "experiment": "Luminex multiplex assay, Phospho-GSK3β(S9)", "outline": "as §1"}, "HT-29": {"test_system": "HT-29", "experiment": "Growth inhibition (cell proliferation assay), HT-29", "conditions": "read-out: Compound 1 Growth Inhibition IC50"}, "Akt(S473)": {"test_system": "Akt(S473)", "experiment": "Inhibition of Akt(S473) phosphorylation in cell lines", "conditions": "read-out: p-Akt (S473)"}}, "note": "Read-outs that look alike come from different tables or passages of the source."}
{"smiles": "CO[C@H]1CC[C@H](N2C(=O)CNc3ncc(-c4ccc(C(C)(C)O)nc4)nc32)CC1", "note": "[Compound 1, 7-(6-(2-hydroxypropan-2-yl)pyridin-3-yl)-1-((1r,4r)-4-methoxycyclohexyl)-3,4-dihydropyrazino-[2,3-b]pyrazin-2(1H)-one]", "values": [{"measurement": "inhibition of mTORC2", "setting": "mTORC2", "result": "inhibition"}, {"measurement": "IC50", "setting": "p70S6K; HCT116 cell line, IGF, read-out: Luminex p70S6K (IGF)", "result": 191, "unit": "nM"}, {"measurement": "IC50", "setting": "p70S6K; U87MG cell line, read-out: Luminex p70S6K", "result": 103, "unit": "nM"}, {"measurement": "IC50", "setting": "HCT116", "result": 370, "unit": "nM"}, {"measurement": "IC50", "setting": "S6RP(S235/S236); A549", "result": 40, "unit": "nM"}, {"measurement": "IC50", "setting": "S6RP(S235/S236); HCT116", "result": 80, "unit": "nM"}, {"measurement": "IC50", "setting": "S6RP(S235/S236); HT-29", "result": 10, "unit": "nM"}, {"measurement": "IC50", "setting": "S6RP(S235/S236); MDA-MB-231", "result": 30, "unit": "nM"}, {"measurement": "IC50", "setting": "S6RP(S235/S236); NCI-H23", "result": 70, "unit": "nM"}, {"measurement": "IC50", "setting": "S6RP(S235/S236); PC3", "result": 20, "unit": "nM"}, {"measurement": "IC50", "setting": "S6RP(S235/S236); U-87 MG", "result": 190, "unit": "nM"}, {"measurement": "IC50", "setting": "Phospho-PRAS40(T246); A549, read-out: p-PRAS40 (T246)", "result": 750, "unit": "nM"}, {"measurement": "IC50", "setting": "Phospho-PRAS40(T246); HCT116, IGF-I stimulation, read-out: p-PRAS40 (T246)", "result": 430, "unit": "nM"}, {"measurement": "IC50", "setting": "Phospho-PRAS40(T246); HCT116 cell line, IGF, read-out: Luminex PRAS40 (IGF)", "result": 430, "unit": "nM"}, {"measurement": "IC50", "setting": "Phospho-PRAS40(T246); HT-29, IGF-I stimulation, read-out: p-PRAS40 (T246)", "result": 350, "unit": "nM"}, {"measurement": "IC50", "setting": "Phospho-PRAS40(T246); MDA-MB-231, IGF-I stimulation, read-out: p-PRAS40 (T246)", "result": 280, "unit": "nM"}, {"measurement": "IC50", "setting": "Phospho-PRAS40(T246); NCI-H23, read-out: p-PRAS40 (T246)", "result": 190, "unit": "nM"}, {"measurement": "IC50", "setting": "Phospho-PRAS40(T246); PC3, read-out: p-PRAS40 (T246)", "result": 140, "unit": "nM"}, {"measurement": "IC50", "setting": "Phospho-PRAS40(T246); U87MG cell line, read-out: Luminex PRAS40", "result": 362, "unit": "nM"}, {"measurement": "IC50", "setting": "Phospho-PRAS40(T246); U-87 MG, read-out: p-PRAS40 (T246)", "result": 360, "unit": "nM"}, {"measurement": "IC50", "setting": "MDA-MB-231", "result": 1770, "unit": "nM"}, {"measurement": "IC50", "setting": "Phospho-GSK3β(S9); HCT116, IGF-I stimulation, read-out: p-GSK3β (S9)", "result": 220, "unit": "nM"}, {"measurement": "IC50", "setting": "Phospho-GSK3β(S9); HCT116 cell line, IGF, read-out: Luminex GSK-3β (IGF)", "result": 359, "unit": "nM"}, {"measurement": "IC50", "setting": "Phospho-GSK3β(S9); HT-29, IGF-I stimulation, read-out: p-GSK3β (S9)", "result": "> 2000", "unit": "nM"}, {"measurement": "IC50", "setting": "Phospho-GSK3β(S9); NCI-H23, read-out: p-GSK3β (S9)", "result": "> 2000", "unit": "nM"}, {"measurement": "IC50", "setting": "Phospho-GSK3β(S9); PC3, read-out: p-GSK3β (S9)", "result": 230, "unit": "nM"}, {"measurement": "IC50", "setting": "Phospho-GSK3β(S9); U87MG cell line, read-out: Luminex GSK-3β", "result": 281, "unit": "nM"}, {"measurement": "IC50", "setting": "Phospho-GSK3β(S9); U-87 MG, read-out: p-GSK3β (S9)", "result": 280, "unit": "nM"}, {"measurement": "IC50", "setting": "HT-29", "result": "> 20000", "unit": "nM"}, {"measurement": "IC50", "setting": "Akt(S473); A549", "result": 120, "unit": "nM"}, {"measurement": "IC50", "setting": "Akt(S473); HCT116", "result": 100, "unit": "nM"}, {"measurement": "IC50", "setting": "Akt(S473); HT-29", "result": 250, "unit": "nM"}, {"measurement": "IC50", "setting": "Akt(S473); MDA-MB-231", "result": 40, "unit": "nM"}, {"measurement": "IC50", "setting": "Akt(S473); NCI-H23", "result": 100, "unit": "nM"}, {"measurement": "IC50", "setting": "Akt(S473); PC3", "result": 10, "unit": "nM"}, {"measurement": "IC50", "setting": "Akt(S473); U-87 MG", "result": 150, "unit": "nM"}]}
